Reference: patent publication US10172863B2, “Purine derivatives useful as HSP90 inhibitors” (Sloan-Kettering Institute for Cancer Research, priority 2009, dated 2019)

Test system: SKBr3 cell Hsp90
Assay: EC50 for Hsp90 binding in SKBr3 cell lysate
Settings: read-out: EC50, binding to SKBr3 cell Hsp90

| EC50 [µM] | SMILES |
| --- | --- |
| 0.022 | CC(C)NCCCn1c(Sc2cc3c(cc2-c2ccco2)OCO3)nc2c(N)ncnc21 [Compound 4C-1, 8-(6-(furan-2-yl)benzo[d][1,3]dioxol-5-ylthio)-9-(3-(isopropylamino)propyl)-9H-purin-6-amine] |
| 0.032 | COc1ccc(-c2cc[nH]n2)c(Sc2nc3c(N)ncnc3n2CCNCC(C)(C)C)c1 [Compound 7E-6, 8-(5-methoxy-2-(1H-pyrazol-3-yl)phenylthio)-9-(2-(neopentylamino)ethyl)-9H-purin-6-amine] |
| 0.24 | COc1ccc(-c2cccs2)c(Sc2nc3c(N)ncnc3n2CCNCC(C)(C)C)c1 [Compound 7D-3, 8-(5-methoxy-2-(thiophen-2-yl)phenylthio)-9-(2-(neopentylamino)ethyl)-9H-purin-6-amine] |
| 0.0079 | CC(C)NCCCn1c(Sc2cc3c(cc2-c2ncco2)OCO3)nc2c(N)ncnc21 [Compound 4C-38, 9-(3-(isopropylamino)propyl)-8-(6-(oxazol-2-yl)benzo[d][1,3]dioxol-5-ylthio)-9H-purin-6-amine] |
| 0.0065 | CC(C)(C)CNCCn1c(Sc2cc3c(cc2-c2ccco2)OCO3)nc2c(N)ncnc21 [Compound 4C-5, 8-(6-(furan-2-yl)benzo[d][1,3]dioxol-5-ylthio)-9-(2-(neopentylamino)ethyl)-9H-purin-6-amine] |
| 1.13 | CC(C)NCCCn1c(Sc2cc3c(cc2CC#N)OCO3)nc2c(N)ncnc21 [Compound 4E-3, 2-(6-((6-amino-9-(3-(isopropylamino)propyl)-9H-purin-8-yl)thio)benzo[d][1,3]dioxol-5-yl)acetonitrile] |
| > 100 | CC(C)NCCCn1c(Sc2cc3c(cc2-c2cc(C(F)(F)F)cc(C(F)(F)F)c2)OCO3)nc2c(N)ncnc21 [Compound 4A-3, 8-(6-(3,5-bis(trifluoromethyl)phenyl)benzo[d][1,3]dioxol-5-ylthio)-9-(3-(isopropylamino)propyl)-9H-purin-6-amine] |
| 0.394 | CC(C)NCCCn1c(Sc2cc3c(cc2C2C=CCC2)OCO3)nc2c(N)ncnc21 (centres unmarked) [Compound 4I-12, 8-(6-(cyclopent-2-enyl)benzo[d][1,3]dioxol-5-ylthio)-9-(3-(isopropylamino)propyl)-9H-purin-6-amine] |
